Reference: patent US6380146B1, “Bleaching detergent compositions” (priority 1999, dated 2002)
Where two headings read alike, the source gives them in different places.

Assays:
[1] = system: phenol oxidizing enzyme from Acremonium murorum; assay: Dye damage of the phenol oxidizing enzyme/enhancer system on colored swatch P10, consecutive washes in detergent formulation; conditions: enzyme 20 mg/l, enhancer 250 μM, 40° C., 1 hour
Description: (§1) A number of colored swatches were washed to assess the degree to which the enzymatic bleach system provokes dye damage. Each swatch was subjected to 5 consecutive washes in a detergent formulation. The closed containers were agitated by putting them in a washing machine. The machine was run for 1 hour with the water heated to 40° C. The pH of the wash solution was set to pH 9. The phenol oxidizing enzyme from Acremonium murorum (see above) was added to the wash solution at 20 mg/l. The enhancers were all dosed at 250 μM.

[2] = system: phenol oxidizing enzyme from Acremonium murorum
Text: The bleaching detergent composition of the present invention comprise one or more surfactants, a phenol oxidizing enzyme and a compound which acts as enhancer for the phenol oxidizing enzyme, said composition having an Enhancer Index as herein defined of at least 12. The Enhancer Index is defined for the purpose of this invention as the ratio of the bleach effect on tomato stains to the colored monitor P10 (ΔEtomato stain/ΔEP10 colored monitor) , and is further illustrated in the Examples. […] Preferably, the Enhancer Index is at least 15, and in particular in the range of 15-50.
In order to express the potential of the various enhancers to provoke stain bleaching in the absence of dye damage, the ratio of bleach effect on the tomato stains to the colored monitor P10 was calculated (ΔEtomato stain/ΔEP10 colored monitor) . This ratio, when tomato extract is used as the stain, is referred to as the ‘Ehancer Index’.

[3] = system: phenol oxidizing enzyme from Acremonium murorum; conditions: enhancer 250 μM, detergent formulation 2 g/l, pH 9, 30 min, 30° C.; for Stain bleach performance ΔE, Tomato Extract, With enzyme: enzyme 20 mg/l; for Stain bleach performance ΔE, Tomato Extract, Without enzyme: no enzyme
Description: (§2) The potential of the various enhancer to boost the bleach performance of phenol oxidizing enzyme was assessed by washing cotton swatches soiled with tomato stains. Two different bleach monitors were used:
Tomato extract material was prepared by acetone extraction of the chromophores from concentrated tomato paste. For the preparation of the stains, the colored acetone solution was applied to cotton swatches
(§3) The pH of the wash solution was set to pH 9. Purified phenol oxidizing enzyme from Acremonium murorum was added to the wash solution at 20 mg/l. […] The enhancers were all dosed at 250 μM. The wash solution was 50 mM Tris buffer.
(§4) The swatches were washed during 30 minutes, at 30° C. After the wash, the swatches were tumble-dried and the reflectance spectra were measured using a Minolta spectrometer. The color differences between the swatch before and after the wash data were expressed in the CIELAB L*a*b* color space. In this color space, L* indicates lightness and a* and b* are the chromaticity coordinates. Color differences between two swatches are expressed as ΔE, which is calculated from the following equation:
(§5) ΔE={square root over (ΔL^2[…] )}

[4] = system: phenol oxidizing enzyme from Acremonium murorum; assay: Bleaching of oily tomato stains on cotton swatches by phenol oxidizing enzyme/enhancer system; conditions: enhancer 250 μM, detergent formulation 2 g/l, pH 9, 30 min, 30° C.; for Stain bleach performance ΔE, Oily Tomato Stain, With enzyme: enzyme 20 mg/l; for Stain bleach performance ΔE, Oily Tomato Stain, Without enzyme: no enzyme
Description: as §2
Oily tomato stains were prepared by applying heated concentrated tomato paste, to which 5 wt % Soya oil was added, to cotton swatches.
as §3, §4, §5

[5] = system: phenol oxidizing enzyme from Acremonium murorum; assay: Dye damage of the phenol oxidizing enzyme/enhancer system on dyed swatches, 3 washes in Tris buffer; conditions: Tris buffer pH 8, enzyme 20 mg/l, enhancer 250 μM; for Color difference (ΔE) dyed swatch OO2 after 3 washes: Dyed Monitor OO2, 3 washes; for Color difference (ΔE) dyed swatch OO6 after 3 washes: Dyed Monitor OO6, 3 washes; for Color difference (ΔE) dyed swatch P10 after 3 washes: Dyed Monitor P10, 3 washes; for Color difference (ΔE) dyed swatch PO8 after 3 washes: Dyed Monitor PO8, 3 washes
Description: as §1, with “Each swatch was subjected to 5 consecutive washes in a detergent formulation.” left out, “The pH of the wash solution was set to pH 9.” left out

[6] = ΔE oily tomato stain/ΔE P10, 50 mM Tris buffer solution
[7] = ΔE oily tomato stain/ΔE P10, detergent formulation
[8] = ΔE tomato extract/ΔE P10, 50 mM Tris buffer solution
[9] = ΔE tomato extract/ΔE P10, detergent formulation

SMILES | Color difference (ΔE) original P10 swatch vs after 1st wash [1] | Color difference (ΔE) original P10 swatch vs after 2nd wash [1] | Color difference (ΔE) original P10 swatch vs after 3rd wash [1] | Color difference (ΔE) original P10 swatch vs after 4th wash [1] | Color difference (ΔE) original P10 swatch vs after 5th wash [1] | Ratio Bleach on Stain Monitor/Dye Damage, Oily Tomato Stain [2, 6] | Ratio Bleach on Stain Monitor/Dye Damage, Oily Tomato Stain [2, 7] | Ratio Bleach on Stain Monitor/Dye Damage, Tomato Extract (Enhancer Index) [2, 8] | Ratio Bleach on Stain Monitor/Dye Damage, Tomato Extract (Enhancer Index) [2, 9] | Stain bleach performance ΔE, Tomato Extract, With enzyme [3] | Stain bleach performance ΔE, Tomato Extract, Without enzyme [3] | Stain bleach performance ΔE, Oily Tomato Stain, With enzyme [4] | Stain bleach performance ΔE, Oily Tomato Stain, Without enzyme [4] | Color difference (ΔE) dyed swatch OO2 after 3 washes [5] | Color difference (ΔE) dyed swatch OO6 after 3 washes [5] | Color difference (ΔE) dyed swatch P10 after 3 washes [5] | Color difference (ΔE) dyed swatch PO8 after 3 washes [5]
O=S(=O)(Nc1cc(Br)c(O)c(Br)c1Br)c1ccccc1 [Enhancer 3BrphenolBSA, N-(2,3,5-tribromo-4-hydroxyphenyl)-Benzenesulfonamide] | 1.69 | 1.17 | 1.20 | 1.55 | 1.77 | 5.62 | 6.18 | 19.97 | 15.18 | 26.87 | 12.99 | 10.95 | 6.89 | 0.47 | 4.45 | 1.00 | 1.45
CCn1c(=NN=c2sc3cc(S(=O)(=O)O)ccc3n2CC)sc2cc(S(=O)(=O)O)ccc21 [ABTS] | 1.61 | 1.51 | 3.29 | 4.99 | 6.52 | 2.66 | 4.22 | 2.93 | 5.76 | 37.56 | 11.12 | 27.53 | 8.67 | 3.47 | 19.70 | 12.18 | 24.02
Cc1ccc(S(=O)(=O)Nc2cc(Br)c(O)c(Br)c2Br)cc1 [3Brphenol3MeBSA, N-(2,3,5-tribromo-4-hydroxyphenyl)-4-Methyl Benzenesulfonamide] | 0.93 | 0.98 | 1.10 | 1.62 | 1.86 | 6.46 | 6.29 | 20.40 | 14.82 | 27.57 | 12.86 | 11.71 | 6.87 | 0.41 | 4.59 | 0.96 | 1.52
O=C(O)CCN1c2ccccc2Sc2ccccc21 [PTP, Phenothiazine-10-propionate] | 0.51 | 0.78 | 1.79 | 2.63 | 3.25 | 0.69 | 2.89 | 3.59 | 10.35 | 33.66 | 12.00 | 9.41 | 8.54 | 6.34 | 15.64 | 9.66 | 12.57
